Data on 38 molecules can be found in ChEMBL document CHEMBL3507680, “University of Dundee, Gates Library screen for HepG2 cell viability”.

This data set in a line: Human HepG2 cell viability assay in 384 well format. Type of data set: toxicity, cell-based. On the set-up: dose 125 nL, time 70.5 hour; cytotoxicity at 70.5 h: concentration not given beside the values. As to conditions: HepG2 cells, read-out: Inhibition.
In the case of `CCC(C)c1csc(NC(=O)c2sc(-c3nnc[nH]3)nc2C)n1` (stereo not drawn), the cytotoxicity at 70.5 h is -9.94%.
As for `Cc1ccoc1C(=O)N1CCO[C@H]2[C@H](OCc3ccncc3)CC[C@@H]21`, the figure is -0.105%; as for `CS(=O)(=O)c1ccc(NC(=O)NCCC2=CCCCC2)cc1`, -10.3%.
The same measure for `COC(=O)N1CC[C@@]2(C1)[C@H](OC)CN(c1ccccc1)S2(=O)=O`: -11.4%; for `CC(=O)N1CCCc2cc(NC(=O)NCCc3cnn(C)c3)ccc21`: -2.87%.
As for `CN(Cc1noc(C2CC2)n1)C1CCN(Cc2ccccc2C#N)C1` (stereo not drawn), the figure is 17.8%; as for `Cc1cc(C)n(CC2CCCN2C(=O)c2cnccn2)n1` (stereo not drawn), 14.8%.
With `CC(C(=O)NC(N)=O)N(C)CCCc1cc(-c2ccccc2)no1` (stereo not drawn), the cytotoxicity at 70.5 h was -3.63%.
The same measure for `COc1ccc(C(O)CNC(=O)NCCc2csc(C)n2)cc1` (stereo not drawn): -4.45%; for `CCCC(NC(=O)c1ccc(C)cc1C)c1nnn[nH]1` (stereo not drawn): 0.32%.
The same measure for `COc1ccc(C(=O)C2CCCN(Cc3cc(C)n[nH]3)C2)c(OC)c1` (stereo not drawn): -5.48%; for `CC(=O)N(C)C(c1cccnc1)c1ccc(F)c(F)c1` (stereo not drawn): 23.1%.
In the case of `COc1cc(N2C[C@@H]3CC[C@H](C2)N(CC2CCC2)C3=O)ncn1`, the cytotoxicity at 70.5 h is -3.49%.
The same measure for `CC(C)CN(Cc1ccccn1)Cc1ccccc1C(=O)O`: 14.4%.
Take `Cc1ncsc1CCN(C)C(=O)CN1CCOC1=O`: the cytotoxicity at 70.5 h stood at 8.27%.
The same measure for `COc1ccc(C(C(=O)O)N2CCC(O)(c3cccnc3)CC2)cc1Cl` (stereo not drawn): -9.89%; for `Cc1nc(C2CCCN(C(=O)c3cccc4c3OCO4)C2)no1` (stereo not drawn): -4.51%.
As for `Cc1n[nH]cc1CNc1ccc2c(c1)CN(C(=O)OC(C)(C)C)CC2`, the figure is -6.16%; as for `CC1(C)CC(CN2CCC3(CCC(=O)N(CCO)C3)CC2)CCO1` (stereo not drawn), -10.6%.
As for `CCN(CC)S(=O)(=O)N1C[C@@H](O)[C@H](Oc2cccc(F)c2)C1`, the figure is -6.35%; as for `CC(=O)c1cccc(NC(=O)CN2CCCCC2C(=O)N2CCCC2)c1` (stereo not drawn), -13.4%; as for `C[C@H](NC(=O)C1CC1)c1nc2cc(-c3ccc(F)cc3)ncn2n1`, 2.87%.
On to `Cc1cc(C)n(CC2CN(CCc3ccncc3)CCO2)n1` (stereo not drawn), for which the cytotoxicity at 70.5 h is -2.71%.
Turning to `O=C(c1cc[nH]n1)N1CCc2c(nc(N3CCCCC3)[nH]c2=O)C1`, the cytotoxicity at 70.5 h was -4.43%.
As for `Cc1cc(Cl)ccc1-n1ncc(C(=O)N(C)CCc2ccccn2)c1N`, the figure is 49.3%; as for `CCOc1ccnc(N2CCCN(C(=O)c3cc[nH]c3C)CC2)n1`, 17.6%.
`CC(=O)N1CCC(Nc2cc(F)ccc2OCC2CCCO2)CC1` (stereo not drawn): the cytotoxicity at 70.5 h came to 11.4%.
`CC1c2ncc(COc3cccnc3)n2CCN1Cc1cnn(C)c1` (stereo not drawn): the cytotoxicity at 70.5 h is -9.85%.
The same measure for `CCc1nc2n(n1)CC(NCc1nc(Cc3ccccc3)no1)CC2` (stereo not drawn): 25.4%.
As for `Cc1ccc(S(=O)(=O)NC2CCC(=O)NC2)cc1Br` (stereo not drawn), the figure is -4.2%.
As for `CS(=O)(=O)c1cc(Cl)cnc1C1CCCN(C(=O)C2CCOCC2)C1` (stereo not drawn), the figure is -7.95%; as for `O=C(NC1CCC(O)CC1)c1cnc2c(cnn2C2CCCC2)c1` (stereo not drawn), -0.508%.
Consider `COc1cccc2c1OCC(NCc1cnn(-c3ccccc3)c1)C2` (stereo not drawn), for which the cytotoxicity at 70.5 h turned out to be 14.4%.
The same measure for `CC(C)(C)OC(=O)N1CCCc2ccc(NCc3ncc[nH]3)cc21`: 9.84%; for `COc1cccc(CNCc2nc3ccccc3c(=O)[nH]2)c1`: 1.76%.
As for `CNC(=O)c1cccc(CN2CCC(N(C)Cc3noc(C)n3)C2)c1` (stereo not drawn), the figure is -4.76%.
As for `CCN1CC(C(=O)N2CCN(CCn3cccc3)CC2)CCC1=O` (stereo not drawn), the figure is 1.29%.
Regarding `CC(C)Nc1ncnc2c1CCN(C(=O)CCc1ccccc1)CC2`, the cytotoxicity at 70.5 h is -3.23%.
